Consider one compound from patent publication US9949979B2, “Use of inhibitors of the activity or function of PI3K” (NOVARTIS AG, priority 2011, dated 2018).

One assay relates to TLR9. The assay can be described thus: TLR9-induced IFNalpha in isolated human pDCs (CpG2216, AlphaLISA). As to conditions: read-out: TLR9-ligand induced IFNα in human pDCs IC50. Format: cell-based. The procedure:
2.4 Determination of TLR9-Induced IFNalpha in Human Peripheral Blood Mononuclear Cells (PBMCs) and Isolated Plasmacytoid Dendritic Cells (pDCs)
Human PBMCs were prepared using Buffy Coats as source material from healthy donations (approx. 50 ml obtained from Blutspendezentrum SRK Basel) and processed as indicated above. […]
Compounds were pre-diluted in 100% v/v DMSO (#41640-100 mL; Sigma-Aldrich), followed by transfer in Media (to achieve a final DMSO concentration of 0.25%). […] Plates were briefly centrifuged (200×g for 2 min at 22° C.) and supernatant samples (30 μl) removed for quantification of IFNα levels.
For quantification of IFNalpha the human interferon AlphaLISA Kit (#AL264F) from PerkinElmer was used. […] After incubation, the plates were read with an EnVision™ multiplate reader equipped with the ALPHA option using the instrument's own “AlphaScreen standard settings” (e.g. total measurement time: 550 ms, Laser 680 nm excitation time: 180 ms, mirror: D640 as, emission filter: M570w, center wavelength 570 nm, bandwidth 100 nm, transmittance 75%). Data were collected for analysis and quantification of IFNα levels.
Data were analysed using Excel XL fit 4.0 (Microsoft) with XLfit add-in (IDBS; version 4.3.2). Specific IFNα concentrations were determined following extrapolation to standard curves using human IFNα B (2b). […]
A general note: Alpha assays give light when donor and acceptor beads are brought close together.

The subject of a further assay is isolated human pDCs. The assay can be described thus: P. falciparum nuclear extract-induced IFNα production in human pDCs. It counts as cell-based. Conditions: for IFNα level: nuclear extract. The procedure:
Human PBMCs were prepared using Buffy Coats as source material from healthy donations (approx. 50 ml obtained from Blutspendezentrum SRK Basel) and processed as indicated above. Fresh PBMCs were resuspended and diluted in RoboSep™ buffer (PBS containing 2% v/v FBS, 1 mM EDTA (Gibco #15575-038) to obtain a final concentration of 50×10^6 PBMCs/ml. Human pDCs (negative selection) were isolated using plasmacytoid DC Enrichment kit (Stemcell, #19062) using an automation RobSep™ station as described according to manufacturer protocols. Typical pDC yields were approx. 0.1% of total PBMCs and with a purity>90%. Isolated pDCs were diluted to 4×10^5 cells/ml and seeded in 384-well plates (#353962; Becton Dickinson AG) to give a final volume of 25 μl (i.e. 1×10^4 cells/well). For stimulation using malaria nuclear extact (see below), pDCs were seeded at a final concentration of 5×10^4 cells/well.
The preparation of the nuclear extract of plasmodium falciparum was performed according to Gowda et al [Gowda et al. “The Nucleosome (Histone-DNA Complex) Is the TLR9-Specific Immunostimulatory Component of Plasmodium falciparum That Activates DCs”, PLoS ONE 2011]. In brief, Plasmodium falciparum 3D7 parasites were cultured in human red blood cell at 2% hematocrit. When the parasite was at late trophozoite and schizont stages, the infected red blood cells (IRBCs) were harvested by centrifugation and the pellets were re-suspended in 20 volumes of 0.1% saponin (m/v) in PBS, pH 7.2. The re-suspension was incubated on ice for 10 minutes and centrifuged at 2,500 g at 4° C. for 15 min. The pellet was re-suspended in the above solution, incubated on ice for 10 min and centrifuged at 2,500 g at 4° C. for 15 min. The parasite pellet thus obtained was washed 3 times with cold PBS, pH 7.2, by centrifugation. Each time 35 ml of cold PBS was used. The pellet obtained after the last centrifugation was suspended in 10 volumes of lysis buffer (20 mM HEPES, pH 7.5, 10 mM KCl, 1 mM EDTA, 1 mM dithiothreitol, 1 mM phenylmethylsulfonyl fluoride (PMSF) and 1% Triton X-100) and incubated on ice for 5 min. The suspension was centrifuged at 5,000 g at 4° C. for 10 min, and nuclear material was washed three times with the lysis buffer to remove membrane components. The nuclear material was re-suspended in PBS, pH 7.2. Insoluble material was subsequently solubilized by using a water-bath sonicator.
Compounds were pre-diluted in 100% v/v DMSO (#41640-100 mL; Sigma-Aldrich), followed by transfer in Media (to achieve a final DMSO concentration of 0.25%). Cells were treated with appropriate compound dilution (5 μl) or vehicle control (5 μl) and incubated for 30 min at 37° C. in a humidified incubator in air with 5% (v/v) CO2. Cells were stimulated with CpG2216 (0.3 μM; #tlrl-hodna; Invivogen), malaria nuclear extract (2.5 μg/ml; see above for preparation) or vehicle control (10 μl/well) and incubated for 20 h. Plates were briefly centrifuged (200×g for 2 min at 22° C.) and supernatant samples (30 μl) removed for quantification of IFNα levels.
For quantification of IFNalpha the human interferon AlphaLISA Kit (#AL264F) from PerkinElmer was used. An antibody mix containing anti-IFNα acceptor beads (5 μg/ml final) and biotinylated antibody anti-IFNα(0.5 nM final) is prepared fresh and dispensed (5 μl) into 384-well Optiplates™ (#6007299; PerkinElmer). Dilution of known IFNα standards (human IFNα B (2b)) were prepared and together with cell supernatants (5 μl) were added to plates above. Plates were briefly centrifuged (pulse at 200 g), covered with adhesive sealing film, vortexed and incubated 1 h at room temperature in the dark. Streptavidin-coated donor beads (20 μg/ml final) was prepared and added to each well (5 μl) in a dark lit area (light sensitive mix). Plates were incubated 30 min at room temperature (Plates must not be centrifuged or covered). […]

As for `CCC(=O)N1CC[C@H](Nc2ncnc3c2CN(c2cnc(OC)c(C(F)(F)F)c2)CC3)C1` [Example 67, 1-{(S)-3-[6-(6-Methoxy-5-trifluoromethyl-pyridin-3-yl)-5,6,7,8-tetrahydro-pyrido[4,3-d]pyrimidin-4-ylamino]-pyrrolidin-1-yl}-propan-1-one], in the assay on TLR9, the IC50 – broadly, the concentration that gives 50% inhibition – came to 33 nM. For the same compound, the inhibition at 0.01 µM in the assay with isolated human pDCs (compound 0.01 μM, read-out: % inh. of IFNα by nuclear extract) is 25%. The inhibition at 0.1 µM in the assay on isolated human pDCs (compound 0.1 μM, read-out: % inh. of IFNα by nuclear extract) stood at 64%. Also, the inhibition at 1 µM with isolated human pDCs (compound 1 μM, read-out: % inh. of IFNα by nuclear extract) is 77%. Also, the figures for the “IFNα level” value in the assay with isolated human pDCs (compound 0.01 μM), with isolated human pDCs (compound 0.1 μM) and in the assay on isolated human pDCs (compound 1 μM) were 4084 pg/mL, 2110 pg/mL and 1483 pg/mL, respectively.
